The results in this text go back to patent publication US9079922B2, “2-oxo-oxazolidin-3,5-diyl antibiotic derivatives” (priority 2011, dated 2015).

The test system of assay [1] is Staphylococcus aureus A798. As to the kind of experiment: Bacterial growth minimal inhibitory concentration (microdilution, cation-adjusted Mueller-Hinton Broth). Format: cell-based. To be noted: multiply-resistant strain, in particular quinolone resistant, read-out: MIC for S. aureus A798. The protocol:
(§1) Bacterial Growth Minimal Inhibitory Concentrations:
(§2) Minimal inhibitory concentrations (MICs; mg/l) were determined in cation-adjusted Mueller-Hinton Broth by a microdilution method following the description given in “Methods for Dilution Antimicrobial Susceptibility Tests for Bacteria that Grow Aerobically”, Approved standard, 7th ed., Clinical and Laboratory Standards Institute (CLSI) Document M7-A7, Wayne, Pa., USA, 2006.
(§3) All Example compounds were tested against several Gram positive and Gram negative bacteria. Staphylococcus aureus A798 and Acinetobacter baumanii T6474 are multiply-resistant strains, in particular quinolone resistant.
(In broth dilution the organism is exposed to a series of concentrations in liquid medium.)

The test system of assay [2] is Acinetobacter baumanii T6474. The description is as above. The format is cell-based. Particulars: Acinetobacter baumannii, multiply-resistant strain, in particular quinolone resistant. The protocol:
as §1, §2, §3

Values after ≈ are worked out from the molar mass of the structure shown.

Usually MIC stands for the lowest concentration that inhibits growth of the organism. For the compound `O=C1COc2ccc(N3C[C@H](CNC4CCN(c5nc6c(cc5F)c(=O)c(C(=O)O)cn6C5CC5)C4)OC3=O)nc2N1` (mixture of isomers) [Example 21, 1-cyclopropyl-6-fluoro-4-oxo-7-((RS)-3-{[(S)-2-oxo-3-(3-oxo-3,4-dihydro-2H-pyrido[3,2-b][1,4]oxazin-6-yl)-oxazolidin-5-ylmethyl]-amino}-pyrrolidin-1-yl)-1,4-dihydro-[1,8]naphthyridine-3-carboxylic acid], the minimal inhibitory concentration (MIC) in assay [1] came out at 0.125 µg/mL; in assay [2], 0.25 µg/mL.

Regarding `O=C(O)c1cn(C2CC2)c2cc(N3CCNCC3)c(F)cc2c1=O` [Cipro, ciprofloxacin, reference compound], the MIC in assay [1] and in assay [2] was more than 32 µg/mL in each case.

For `O=C1CSc2ccc(N3C[C@@H](CN4CCN(c5cc6c(cc5F)c(=O)c(C(=O)O)cn6C5CC5)CC4)OC3=O)cc2N1` [Example 1, 1-cyclopropyl-6-fluoro-4-oxo-7-{4-[(R)-2-oxo-3-(3-oxo-3,4-dihydro-2H-benzo[1,4]thiazin-6-yl)-oxazolidin-5-ylmethyl]-piperazin-1-yl}-1,4-dihydro-quinoline-3-carboxylic acid], the minimal inhibitory concentration (MIC) in assay [1] is not above 0.016 µg/mL; in assay [2] it was 0.125 µg/mL (≈ 0.211 µM).

For the compound `O=C1CSc2ccc(N3C[C@@H](CNC4CN(c5nc6c(cc5F)c(=O)c(C(=O)O)cn6C5CC5)C4)OC3=O)cc2N1` [Example 2, 1-cyclopropyl-6-fluoro-4-oxo-7-(3-{[(R)-2-oxo-3-(3-oxo-3,4-dihydro-2H-benzo[1,4]thiazin-6-yl)-oxazolidin-5-ylmethyl]-amino}-azetidin-1-yl)-1,4-dihydro-[1,8]naphthyridine-3-carboxylic acid], the MIC is not above 0.016 µg/mL in assay [1] and 0.125 µg/mL (≈ 0.215 µM) in assay [2].

On to `O=C1CSc2ccc(N3C[C@@H](CN4CCN(c5cc6c(cc5F)c(=O)c(C(=O)O)cn6C5CC5)CC4)OC3=O)nc2N1` [Example 3, 1-cyclopropyl-6-fluoro-4-oxo-7-{4-[(R)-2-oxo-3-(3-oxo-3,4-dihydro-2H-pyrido[3,2-b][1,4]thiazin-6-yl)-oxazolidin-5-ylmethyl]-piperazin-1-yl}-1,4-dihydro-quinoline-3-carboxylic acid], for which the MIC in assay [1] is not above 0.016 µg/mL; in assay [2], 0.063 µg/mL (≈ 0.106 µM).

With `O=C1CSc2ccc(N3C[C@@H](CN4CCN(c5nc6c(cc5F)c(=O)c(C(=O)O)cn6C5CC5)CC4)OC3=O)cc2N1` [Example 4, 1-cyclopropyl-6-fluoro-4-oxo-7-{4-[(R)-2-oxo-3-(3-oxo-3,4-dihydro-2H-benzo[1,4]thiazin-6-yl)-oxazolidin-5-ylmethyl]-piperazin-1-yl}-1,4-dihydro-[1,8]naphthyridine-3-carboxylic acid], the minimum inhibitory concentration (MIC) in assay [1] was not above 0.016 µg/mL; in assay [2] it was 0.125 µg/mL (≈ 0.21 µM).

For the compound `O=C1CSc2ccc(N3C[C@@H](CNC4CN(c5nc6c(cc5F)c(=O)ccn6C5CC5)C4)OC3=O)cc2N1` [Example 5, 6-((R)-5-{[1-(8-cyclopropyl-3-fluoro-5-oxo-5,8-dihydro-[1,8]naphthyridin-2-yl)-azetidin-3-ylamino]-methyl}-2-oxo-oxazolidin-3-yl)-4H-benzo[1,4]thiazin-3-one], the MIC is not above 0.016 µg/mL in assay [1] and 1 µg/mL (≈ 1.86 µM) in assay [2].

For the compound `O=C1COc2ccc(N3C[C@@H](CNC4CN(c5nc6c(cc5F)c(=O)c(C(=O)O)cn6C5CC5)C4)OC3=O)nc2N1` [Example 6, 1-cyclopropyl-6-fluoro-4-oxo-7-(3-{[(R)-2-oxo-3-(3-oxo-3,4-dihydro-2H-pyrido[3,2-b][1,4]oxazin-6-yl)-oxazolidin-5-ylmethyl]-amino}-azetidin-1-yl)-1,4-dihydro-[1,8]naphthyridine-3-carboxylic acid], the results for the MIC in assay [1] and in assay [2] were not above 0.016 µg/mL and 0.031 µg/mL (≈ 0.0548 µM), respectively.

With `COc1c(N2CC(NC[C@@H]3CN(c4ccc5c(c4)NC(=O)CS5)C(=O)O3)C2)ccc2c(=O)c(C(=O)O)cn(C3CC3)c12` [Example 7, 1-cyclopropyl-8-methoxy-4-oxo-7-(3-{[(R)-2-oxo-3-(3-oxo-3,4-dihydro-2H-benzo[1,4]thiazin-6-yl)-oxazolidin-5-ylmethyl]-amino}-azetidin-1-yl)-1,4-dihydro-quinoline-3-carboxylic acid], the MIC worked out at 0.063 µg/mL (≈ 0.106 µM) in assay [1] and 0.25 µg/mL (≈ 0.423 µM) in assay [2].
